According to ChEMBL document CHEMBL5442663, “ASAP - Solubility” (2024):
In brackets after ≈: the same amount, converted by molar mass. Several values for one entry are separate records, joined by “and”; a condition that tells them apart may be missing. Equal entries are not always repeated.

Test: Kinetic solubility of compound by measuring concentration at pH 7.4 in saturated PBS buffer by UV LCMS/MS using calibration curves. The assay has been performed by Enamine biological services, Bienta Ltd.The protocol is publicly available: dx.doi.org/10.17504/protocols.io.j8nlk8y41l5r/v1
Format: physicochemical
Settings: for solubility kinetic: PBS buffer; for Solubility (mean): buffer

Structure (SMILES) | solubility kinetic | Solubility (mean)
CC(C)[C@@H](Nc1ncnc2[nH]ccc12)c1ccc2c(c1)S(=O)(=O)CCC2 | 385 µM (≈ 143 µg/mL) | 386 µM (≈ 143 µg/mL)
CCNC(=O)c1cc2c(N[C@@H](c3ccc4c(c3)S(=O)(=O)CCC4)C(C)C)ncnc2[nH]1 | 336 µM (≈ 148 µg/mL) | 316 µM (≈ 140 µg/mL)
Cn1ncc(-c2cc3c(N[C@@H](c4ccc5c(n4)OCCO5)C(C)(C)C)ncnc3[nH]2)c1C#N | 25 µM (≈ 11.1 µg/mL) | 24 µM (≈ 10.7 µg/mL)
CNC(=O)c1cc2c(N[C@@H](c3ccc4c(c3)OCCO4)C(C)C)ncnc2[nH]1 | 380 µM (≈ 145 µg/mL) | 
CC(C)[C@@H](Nc1ncnc2[nH]c(C(=O)N[C@@H]3CCN(C)C3)cc12)c1ccc2c(c1)S(=O)(=O)CCC2 | 392 µM (≈ 195 µg/mL) | 
CC(C)[C@@H](Nc1ncnc2[nH]c(-c3cnn(C)c3)cc12)c1ccc2c(c1)S(=O)(=O)NCC2 | 105 µM (≈ 47.4 µg/mL) | 
CC(C)[C@H](Nc1ncnc2[nH]c(-c3cnn(C)c3C#N)cc12)c1ccc2c(c1)S(=O)(=O)CCC2 | 22 µM (≈ 10.5 µg/mL) | 
CNCc1cc(-c2cc3c(N[C@@H](c4ccc5c(c4)S(=O)(=O)CCC5)C(C)C)ncnc3[nH]2)co1 | 321 µM (≈ 154 µg/mL) | 345 µM (≈ 165 µg/mL)
CNCc1cc(-c2cc3c(N[C@H](c4ccc5c(c4)S(=O)(=O)CCC5)C(C)C)ncnc3[nH]2)co1 | 358 µM (≈ 172 µg/mL) | 
CC(C)[C@H](Nc1ncnc2[nH]c(-c3cnn(C)c3C#N)cc12)c1ccc2c(n1)NC(=O)CO2 | 28 µM (≈ 12.4 µg/mL) | 
CC(C)[C@@H](Nc1ncnc2[nH]ccc12)c1ccc2c(c1)NC(=O)CO2 | 389 µM (≈ 131 µg/mL) | 374 µM (≈ 126 µg/mL)
COc1ccc([C@@H](Cc2nnn[nH]2)NC(=O)c2ncnc3[nH]ccc23)cc1 | 395 µM (≈ 144 µg/mL) | 
CCNC(=O)c1cc2c(N[C@@H](c3ccc4c(c3)S(=O)(=O)NCC4)C(C)C)ncnc2[nH]1 | 344 µM (≈ 152 µg/mL) | 
CNC(=O)Cn1cc(-c2cc3c(N[C@@H](c4ccc5c(c4)S(=O)(=O)CCC5)C(C)C)ncnc3[nH]2)cn1 | 306 µM (≈ 155 µg/mL) | 294 µM (≈ 149 µg/mL)
CC(C)[C@@H](Nc1ncnc2[nH]c(-c3cnn(C)c3C#N)cc12)c1ccc2c(n1)OCCO2 | 89 µM (≈ 38.3 µg/mL) | 60 µM and 50 µM
CC(C)[C@H](Nc1ncnc2[nH]c(-c3cnn(C)c3C#N)cc12)c1ccc2c(n1)OCCO2 | 53 µM (≈ 22.8 µg/mL) | 
CC(C)[C@@H](Nc1ncnc2[nH]c(-c3cnn(C)c3C#N)cc12)c1ccc2c(c1)OCCO2 | 17 µM (≈ 7.3 µg/mL) | 20 µM (≈ 8.59 µg/mL)
CC(C)[C@H](Nc1ncnc2[nH]ccc12)c1ccc2c(c1)S(=O)(=O)CCC2 | 374 µM (≈ 139 µg/mL) | 
CC(C)[C@@H](Nc1ncnc2[nH]cc(C(=O)NC3CC3)c12)c1ccc2c(c1)S(=O)(=O)CCC2 | 257 µM (≈ 117 µg/mL) | 216 µM (≈ 98 µg/mL)
CC(C)[C@@H](Nc1ncnc2[nH]c(-c3ccc4nnn(C)c4c3)cc12)c1ccc2c(c1)S(=O)(=O)CCC2 | 6 µM (≈ 3.01 µg/mL) | 
CC(C)[C@@H](Nc1ncnc2[nH]c(-c3cnn(C)c3)cc12)c1ccc2c(c1)S(=O)(=O)CCC2 | 94 µM (≈ 42.4 µg/mL) | 111 µM (≈ 50 µg/mL)
CC(C)[C@@H](Nc1ncnc2[nH]c(-c3cnn(CC(N)=O)c3)cc12)c1ccc2c(n1)OCCO2 | 385 µM (≈ 173 µg/mL) | 395 µM (≈ 177 µg/mL)
CC(C)[C@@H](Nc1ncnc2[nH]c(-c3cnn(CCC(N)=O)c3)cc12)c1ccc2c(c1)OCCO2 | 236 µM (≈ 109 µg/mL) | 
CNC(=O)Cn1cc(-c2cc3c(N[C@H](c4ccc5c(c4)S(=O)(=O)CCC5)C(C)C)ncnc3[nH]2)cn1 | 323 µM (≈ 164 µg/mL) | 
CC(C)[C@@H](Nc1ncnc2[nH]c(-c3cnn(CC(N)=O)c3)cc12)c1ccc2c(c1)S(=O)(=O)CCC2 | 341 µM (≈ 168 µg/mL) | 335 µM (≈ 165 µg/mL)
CNC(=O)c1cc2c(N[C@@H](c3ccc4c(c3)S(=O)(=O)CCC4)C(C)C)ncnc2[nH]1 | 369 µM (≈ 158 µg/mL) | 397 µM (≈ 170 µg/mL)
CC(C)[C@@H](Nc1ncnc2[nH]c(-c3cnn(CC(=O)N(C)C)c3)cc12)c1ccc2c(c1)OCCO2 | 210 µM (≈ 99.9 µg/mL) | 205 µM (≈ 97.5 µg/mL)

Structure (SMILES) | solubility kinetic | Solubility (mean)
CC(C)[C@@H](Nc1ncnc2[nH]c(-c3cnn(C)c3C#N)cc12)c1ccc2c(n1)NC(=O)CO2 | 29 µM (≈ 12.9 µg/mL) | 28 µM (≈ 12.4 µg/mL)
CC(C)[C@@H](Nc1ncnc2[nH]c(-c3cnn(C)c3C#N)cc12)c1ccc2c(c1)S(=O)(=O)CCC2 | 34 µM (≈ 16.2 µg/mL) | 26 µM (≈ 12.4 µg/mL)
CNC(=O)c1c[nH]c2ncnc(N[C@H](c3ccc4c(c3)S(=O)(=O)CCC4)C(C)C)c12 | 336 µM (≈ 144 µg/mL) | 
Cn1ncc(-c2cc3c(N[C@@H](c4ccc5c(c4)OCCO5)C(C)(C)C)ncnc3[nH]2)c1C#N | 25 µM (≈ 11.1 µg/mL) | 
CC(C)[C@@H](Nc1ncnc2[nH]c(-c3cnn(CC(N)=O)c3)cc12)c1ccc2c(c1)OCCO2 | 345 µM (≈ 154 µg/mL) | 332 µM (≈ 149 µg/mL)
CNC(=O)Cn1cc(-c2cc3c(N[C@@H](c4ccc5c(c4)OCCO5)C(C)C)ncnc3[nH]2)cn1 | 289 µM (≈ 133 µg/mL) | 
C[C@@H](C(=O)O)[C@@H](NC(=O)c1ncnc2[nH]ccc12)c1ccc(Br)cc1 | 386 µM (≈ 156 µg/mL) | 
CC(C)(C)[C@@H](Nc1ncnc2[nH]c(-c3cnn(CC(N)=O)c3)cc12)c1ccc2c(c1)OCCO2 | 195 µM (≈ 90 µg/mL) | 104 µM (≈ 48 µg/mL)
CNC(=O)c1c[nH]c2ncnc(N[C@@H](c3ccc4c(c3)OCCO4)C(C)C)c12 | 319 µM (≈ 122 µg/mL) | 
CNC(=O)c1c[nH]c2ncnc(N[C@@H](c3ccc4c(c3)S(=O)(=O)CCC4)C(C)C)c12 | 390 µM (≈ 167 µg/mL) | 204 µM (≈ 87.2 µg/mL)
CC(C)[C@H](CO)Nc1ncnc2[nH]ccc12 | ≥ 400 µM | 
CC(C)[C@H](Nc1ncnc2[nH]c(-c3cnn(CC(N)=O)c3)cc12)c1ccc2c(c1)OCCO2 | 280 µM (≈ 125 µg/mL) | 
CC(C)[C@@H](Nc1ncnc2[nH]cc(C(N)=O)c12)c1ccc2c(c1)OCCO2 | 375 µM (≈ 138 µg/mL) | 
CNC(=O)c1c[nH]c2ncnc(N[C@@H](c3ccc4c(c3)NC(=O)CO4)C(C)C)c12 | 28 µM (≈ 11 µg/mL) | 
O=C(Nc1ccccc1)Nc1ccc(C(=O)NC2c3cccc(O)c3CC2C(=O)O)cc1 (centres undefined) | 319 µM (≈ 138 µg/mL) | 
CC(C)(C)[C@H](Nc1ncnc2[nH]c(-c3cnn(CC(N)=O)c3)cc12)c1ccc2c(n1)OCCO2 | 372 µM (≈ 172 µg/mL) | 
COCCNC(=O)c1c[nH]c2ncnc(N[C@@H](c3ccc4c(c3)S(=O)(=O)CCC4)C(C)C)c12 | 378 µM (≈ 178 µg/mL) | 
CC(C)[C@@H](Nc1ncnc(N)c1Cl)c1ccc2c(c1)S(=O)(=O)CCC2 | ≥ 400 µM | 
CC(C)[C@@H](Nc1ncnc2[nH]c(-c3cnn(CC(N)=O)c3)cc12)c1ccc2c(c1)NC(=O)CO2 | 25 µM (≈ 11.5 µg/mL) | 
CNC(=O)c1cc2c(N[C@@H](c3ccc4c(c3)NC(=O)CO4)C(C)C)ncnc2[nH]1 | 372 µM (≈ 147 µg/mL) | 380 µM (≈ 150 µg/mL)
CC(C)[C@H](Nc1ncnc2[nH]ccc12)c1ccc2c(c1)NC(=O)CO2 | 371 µM (≈ 125 µg/mL) | 
COc1ccc([C@@H](NC(=O)c2[nH]cnc3nccc2-3)C(C)c2nnn[nH]2)cc1 (some centres undefined) | ≥ 400 µM | 
COc1ccc([C@@H](CC(=O)O)NC(=O)c2ncnc3[nH]ccc23)cc1 | ≥ 400 µM | 
CC(C)[C@H](Nc1ncnc2[nH]c(C(=O)N[C@@H]3CCN(C)C3)cc12)c1ccc2c(c1)S(=O)(=O)CCC2 | 366 µM (≈ 182 µg/mL) | 
COc1ccc2c(c1)CCN(c1ncnc3[nH]ccc13)[C@H]2C(C)C | 14 µM (≈ 4.51 µg/mL) | 
CC(C)[C@H](Nc1ncnc2[nH]c(-c3cnn(C)c3C#N)cc12)c1ccc2c(c1)OCCO2 | 15 µM (≈ 6.44 µg/mL) | 
O=C(Nc1cccc2c(C(=O)N[C@@H]3c4ccccc4C[C@@H]3C(=O)O)c[nH]c12)NC1CC1 | ≥ 400 µM | 
